Among the data in article PMC10411619 (Chemical Science, 2023) are Kd values, retold here.

In the experiment the target is cyt P460 (Nitrosomonas europaea, UniProt Q50927). Put plainly: biochemical.
Sequence of cyt P460 (Q50927 27-198): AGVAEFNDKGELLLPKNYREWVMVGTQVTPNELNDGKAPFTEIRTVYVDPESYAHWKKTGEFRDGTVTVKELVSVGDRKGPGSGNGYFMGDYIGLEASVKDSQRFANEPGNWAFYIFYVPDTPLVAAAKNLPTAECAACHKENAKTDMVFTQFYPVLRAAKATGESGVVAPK

The compound `NO` [NH2OH] showed a Kd of 30 ± 0.7 mM.
